{
  "source": "patent US20250318532A1",
  "about": "“ASCAROSIDE COMBINATIONS” (Ascribe Bioscience Inc., priority 2022, published 2025)",
  "test_system": "Asian Soybean Rust (ASR)",
  "test": "Soybean field trial in Brazil, ascaroside with Chlorothalonil and APROACH POWER",
  "format": "in vivo",
  "settings": "ascaroside alone, 250 mg/ac, foliar spray, relative to untreated controls",
  "data": [
    {"molecule": "CC1OC(O[C@H](C)CCCCCCCCC(=O)O)C(O)CC1O", "note": "(stereo partly shown) [ascr #18]", "values": [
      {"measurement": "protection against Asian Soybean Rust", "result": "20-40%"}
    ]}
  ]
}
